Data published in patent EP3057951B1, “METHYLENE LINKED QUINOLINYL MODULATORS OF ROR-GAMMA-T” (Janssen Pharmaceutica NV, priority 2013, dated 2015).
Where two headings read alike, the source gives them in different places.

Key:
[1] = target: T1, wild type human RORγt ligand binding domain (RORyt LBD) (Homo sapiens, UniProt P51449); test: RORγt ThermoFluor assay (thermal shift, binding affinity KD)
T1 construct: His-tag (N); TurboTEV protease cleavage site (ENLYFQG) (N); made in house; host or cells: E. coli (pHIS1, modified pET vector)
T1 sequence (P51449 258-518): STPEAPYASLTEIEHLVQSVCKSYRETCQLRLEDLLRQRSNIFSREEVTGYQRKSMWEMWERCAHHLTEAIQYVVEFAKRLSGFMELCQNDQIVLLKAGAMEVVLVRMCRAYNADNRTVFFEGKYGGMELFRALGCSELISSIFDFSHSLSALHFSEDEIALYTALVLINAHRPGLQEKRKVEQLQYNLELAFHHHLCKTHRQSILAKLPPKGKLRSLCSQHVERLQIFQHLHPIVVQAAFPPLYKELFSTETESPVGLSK

[2] = target: T2, wild type human RORγt LBD (Homo sapiens, UniProt P51449); test: RORγt (LBD) Reporter Assay (GAL4-luciferase, HEK293T cells); format: cell-based; details: for RORγt (LBD) Reporter Assay, % inhibition @ 6 µM: 6 µM compound concentration; for inhibition at 6 µM: HEK-293T, read-out: RORγt (LBD) Reporter Assay, % inhibition @ 6 µM, 6 µM compound concentration
T2 construct: expressed in transfected cells; host or cells: HEK293T
T2 sequence (P51449 258-518): T1 sequence (P51449 258-518)

[3] = HEK293T cells, value after the comma with ∼, > or < could not be included in the average

SMILES	Kd [1] [nM]	RORγt (LBD) Reporter Assay, % inhibition @ 6 µM ([2]; HEK293T cells) [%]	IC50 ([2]; HEK293T cells) [nM]	inhibition at 6 µM ([2]; HEK293T cells) [%]	IC50 [2, 3] [nM]	inhibition at 6 µM [2] [%]	RORγt (LBD) Reporter Assay, % inhibition @ 6 µM [2] [%]
COc1nc2ccc(C(O)(c3ccc(F)cc3)C3CCN(C(C)=O)CC3)cc2c(Cl)c1Cc1ccc(-n2cccn2)cc1 (single isomer, unassigned) [Example 157c, 1-(4-((3-(4-(1H-Pyrazol-1-yl)benzyl)4-chloro-2-methoxyquinolin-6-yl)(4-fluorophenyl)(hydroxy)methyl)piperidin-1-yl)ethanone]	110	99	160	–	–	–	–
COc1nc2ccc(C(O)(c3ccc(F)cc3)c3cccnc3)cc2c(Cl)c1Cc1ccc(-n2cccn2)cc1 (single isomer, unassigned) [Example 158b, (3-(4-(1H-Pyrazol-1-yl)benzyl)-4-chloro-2-methoxyquinolin-6-yl)(4-fluorophenyl)(pyridin-3-yl)methanol]	140	–	170	107	–	–	–
COc1nc2ccc(C(O)(c3ccc(F)cc3)c3cccnc3)cc2c(Cl)c1Cc1ccc(-n2cccn2)cc1 (single isomer, unassigned) [Example 158c, (3-(4-(1H-Pyrazol-1-yl)benzyl)-4-chloro-2-methoxyquinolin-6-yl)(4-fluorophenyl)(pyridin-3-yl)methanol]	7.7	100	130	–	–	–	–
COc1ccc(C(O)(c2cccnc2)c2ccc3nc(OC)c(Cc4ccc(-n5cccn5)cc4)c(Cl)c3c2)cc1OC (single isomer, unassigned) [Example 159b, (3-(4-(1H-Pyrazol-1-yl)benzyl)-4-chloro-2-methoxyquinolin-6-yl)(3,4-dimethoxyphenyl)(pyridin-3-yl)methanol]	510	–	370	107	–	–	–
COc1ccc(C(O)(c2cccnc2)c2ccc3nc(OC)c(Cc4ccc(-n5cccn5)cc4)c(Cl)c3c2)cc1OC (single isomer, unassigned) [Example 159c, (3-(4-(1H-Pyrazol-1-yl)benzyl)-4-chloro-2-methoxyquinolin-6-yl)(3,4-dimethoxyphenyl)(pyridin-3-yl)methanol]	14	105	51	–	–	–	–
COc1nc2ccc(C(O)(c3ccc(F)cc3)c3cncn3C)cc2c(Cl)c1Cc1ccc(-n2cccn2)cc1 (single isomer, unassigned) [Example 160b, (3-(4-(1H-Pyrazol-1-yl)benzyl)-4-chloro-2-methoxyquinolin-6-yl)(4-fluorophenyl)(1-methyl-1H-imidazol-5-yl)methanol]	460	–	680	105	–	–	–
COc1nc2ccc(C(O)(c3ccc(F)cc3)c3cncn3C)cc2c(Cl)c1Cc1ccc(-n2cccn2)cc1 (single isomer, unassigned) [Example 160c, (3-(4-(1H-Pyrazol-1-yl)benzyl)-4-chloro-2-methoxyquinolin-6-yl)(4-fluorophenyl)(1-methyl-1H-imidazol-5-yl)methanol]	12	98	47	–	–	–	–
COc1nc2ccc(C(O)(c3cccnc3)c3ccc(Cl)c(Cl)c3)cc2c(Cl)c1Cc1ccc(-n2cccn2)cc1 (single isomer, unassigned) [Example 161b, (3-(4-(1H-Pyrazol-1-yl)benzyl)-4-chloro-2-methoxyquinolin-6-yl)(3,4-dichlorophenyl)(pyridin-3-yl)methanol]	280	–	160	108	–	–	–
COc1nc2ccc(C(O)(c3cccnc3)c3ccc(Cl)c(Cl)c3)cc2c(Cl)c1Cc1ccc(-n2cccn2)cc1 (single isomer, unassigned) [Example 161c, (3-(4-(1H-Pyrazol-1-yl)benzyl)-4-chloro-2-methoxyquinolin-6-yl)(3,4-dichlorophenyl)(pyridin-3-yl)methanol]	11	102	78	–	–	–	–
COc1nc2ccc(C(O)(c3cncn3C)C3CCOCC3)cc2c(C#N)c1Cc1ccc(-n2cccn2)cc1 (stereo not drawn) [Example 2b, 3-(4-(1H-Pyrazol-1-yl)benzyl)-6-(hydroxy(1-methyl-1H-imidazol-5-yl)(tetrahydro-2H-pyran-4-yl)methyl)-2-methoxyquinoline-4-carbonitrile]	110	–	–	–	130	101	–
COc1nc2ccc(C(O)(c3ccc(C#N)cc3)c3cncn3C)cc2c(Cl)c1Cc1ccc(-n2cncn2)cc1 (stereo not drawn) [Example 14a, 4-((3-(4-(1H-1,2,4-Triazol-1-yl)benzyl)4-chloro-2-methoxyquinolin-6-yl)(hydroxy)(1-methyl-1H-imidazol-5-yl)methyl)benzonitrile]	17	–	–	–	42	105	–
COc1nc2ccc(C(O)(c3ccccc3)C3CCN(C(C)=O)CC3)cc2c(Cl)c1Cc1ccc(-n2ccnc2)cc1 (stereo not drawn) [Example 16a, 1-(4-((3-(4-(1H-Imidazol-1-yl)benzyl)4-chloro-2-metboxyquinolin-6-yl)(hydroxy)(phenyl)methyl)piperidin-1-yl)ethanone]	8.4	–	–	–	9.8	101	–
COc1nc2ccc(C(O)(c3ccccc3)C3CCN(C(C)=O)CC3)cc2c(Cl)c1Cc1ccc(-n2ccnc2)cc1 (stereo not drawn) [Example 16b]	33	–	–	–	91	–	96
COc1nc2ccc(C(O)(c3ccccc3)C3CCN(C(C)=O)CC3)cc2c(Cl)c1Cc1ccc(-n2cncn2)cc1 (stereo not drawn) [Example 18a, 1-(4-((3-(4-(1H-1,2,4-Triazol-1-yl)benzyl)4-chloro-2-methoxyquinolin-6-yl)(hydroxy)(phenyl)methyl)piperidin-1-yl)ethanone]	14	–	–	–	46	99	–

Stronger by Kd [1], values ahead:

Kd [1] [nM]	RORγt (LBD) Reporter Assay, % inhibition @ 6 µM ([2]; HEK293T cells) [%]	IC50 ([2]; HEK293T cells) [nM]	inhibition at 6 µM ([2]; HEK293T cells) [%]	IC50 [2, 3] [nM]	inhibition at 6 µM [2] [%]	RORγt (LBD) Reporter Assay, % inhibition @ 6 µM [2] [%]	SMILES
4.6	–	–	–	20	–	100	COc1nc2ccc(C(O)(c3ccccc3)C3CCN(C(C)=O)CC3)cc2c(Cl)c1Cc1ccc(-n2ccnc2)cc1 (stereo not drawn) [Example 16c]
3.1	–	–	–	33	101	–	Cc1nc2ccc(C(O)(c3ccc(C(F)(F)F)nc3)c3cncn3C)cc2c(Cl)c1Cc1ccc(C(F)(F)F)cc1 (stereo not drawn) [Example 26a, (4-Chloro-2-methyl-3-(4-(trifluoromethyl)benzyl)quinolin-6-yl)(1-methyl-1H-imidazol-5-yl)(6-(trifluoromethyl)pyridin-3-yl)methanol]
1.5	–	–	–	4.6	100	–	COc1nc2ccc(C(O)(c3ccc(C)nc3C)c3cnnn3C)cc2c(Cl)c1Cc1ccc(N(C)C)cc1 (stereo not drawn) [Example 24a, (4-Chloro-3-(4-(dimethylamino)benzyl)-2-methoxyquinolin-6-yl)(2,6-dimethylpyridin-3-yl)(1-methyl-1H-1,2,3-triazol-5-yl)methanol]
1.4	–	–	–	4.4	101	–	CC(=O)N1CCC(C(O)(c2ccccc2)c2ccc3nc(C)c(Cc4ccc(C(F)(F)F)cc4)c(Cl)c3c2)CC1 (stereo not drawn) [Example 27a, 1-(4-((4-Chloro-2-methyl-3-(4-(trifluoromethyl)benzyl)quinolin-6-yl)(hydroxy)(phenyl)methyl)piperidin-1-yl)ethanone]
1.1	–	–	–	40	91	–	COc1nc2ccc(C(O)(c3ccc(C)nc3C)c3cnnn3C)cc2c(Cl)c1Cc1ccc(C)cc1 (stereo not drawn) [Example 20a, (4-Chloro-2-methoxy-3-(4-methylbenzyl)quinolin-6-yl)(2,6-dimethylpyridin-3-yl)(1-methyl-1H-1,2,3-triazol-5-yl)methanol]
0.91	–	–	–	10	99	–	COc1nc2ccc(C(O)(c3ccc(C)nc3C)c3cnnn3C)cc2c(Cl)c1Cc1ccc(-n2cccn2)cc1 (stereo not drawn) [Example 17a, (3-(4-(1H-Pyrazol-1-yl)benzyl)4-chloro-2-methoxyquinolin-6-yl)(2,6-dimethylpyridin-3-yl)(1-methyl-1H-1,2,3-triazol-5-yl)methanol]
0.7	–	–	–	3.1	99	–	COc1nc2ccc(C(O)(c3cnnn3C)c3cnnn3C)cc2c(Cl)c1Cc1ccc(C(F)(F)F)cc1 [Example 12, (4-Chloro-2-methoxy-3-(4-(trifluoromethyl)benzyl)quinolin-6-yl)bis(1-methyl-1H-1,2,3-triazol-5-yl)methanol]
0.31	–	–	–	6	101	–	COc1nc2ccc(C(O)(c3sc(C)nc3C)c3cnnn3C)cc2c(Cl)c1Cc1ccc(-n2cccn2)cc1 (stereo not drawn) [Example 21a, (3-(4-(1H-Pyrazol-1-yl)benzyl)4-chloro-2-methoxyquinolin-6-yl)(2,4-dimethylthiazol-5-yl)(1-methyl-1H-1,2,3-triazol-5-yl)methanol]
0.25	–	–	–	11	99	–	Cc1ccc(C(O)(c2ccc3nc(C)c(Cc4ccc(C(F)(F)F)cc4)c(Cl)c3c2)c2cnnn2C)c(C)n1 (stereo not drawn) [Example 28a, (4-Chloro-2-methyl-3-(4-(trifluoromethyl)benzyl)quinolin-6-yl)(2,6-dimethylpyridin-3-yl)(1-methyl-1H-1,2,3-triazol-5-yl)methanol]
0.14	–	–	–	18	99	–	CCc1nc2ccc(C(O)(c3ccc(C)nc3C)c3cnnn3C)cc2c(Cl)c1Cc1ccc(C(F)(F)F)cc1 (stereo not drawn) [Example 23a, (4-Chloro-2-ethyl-3-(4-(trifluoromethyl)benzyl)quinolin-6-yl)(2,6-dimethylpyridin-3-yl)(1-methyl-1H-1,2,3-triazol-5-yl)methanol]
